In one test the test system is SU-DHL-4 cell lines. In words: Proliferation inhibition test, GCB-DLBCL cell line SU-DHL-4 (negative control line). The following applies: Homo sapiens; SU-DHL-4 (GCB-DLBCL, NF-κB pathway-independent, negative control); 96 hours; Cell Counting Kit-8; read-out: Proliferation inhibitory activity against SU-DHL-4 IC50. Type of test: cell-based. The method, then: (§1) In ABC-DLBCL cell lines, the NF-κB pathway is constitutively activated due to mutations in the B-cell receptor pathway. To evaluate the proliferation inhibitory activity associated with the MALT1 inhibitory activity of the test substance, a proliferation inhibition test was conducted using ABC-DLBCL cell lines.
(§2) The test substance was prepared at a concentration of 10 mM in dimethyl sulfoxide (DMSO) and further diluted with DMSO to each of concentrations of 3,000, 1,000, 300, 100, 30, and 10 µM. The solutions were further diluted 100-fold with IMDM medium containing 10% FBS to prepare test substance solutions.
(§3) OCI-Ly3 cell lines (ABC-DLBCL, NF-κB pathway-dependent) were cultured in IMDM containing 10% FBS, and SU-DHL-4 cell lines (GCB-DLBCL, NF-κB pathway-independent, used as a negative control) were cultured in RPMI-1640 containing 10% FBS. Into a 96-well plate, 2,000 cells of the OCI-Ly3 cell line and 4,000 cells of the SU-DHL-4 cell line were seeded in 100 µL per well, and 11 µL of the adjusted test substance solution was added thereto (final concentrations: 10,000, 3,000, 1,000, 300, 100, 30, and 10 nM). After 96 hours of incubation at 37°C in a 5% CO2 incubator, 10 µL of Cell Counting Kit-8 (Dojindo Laboratories) was added to each well. After 4 hours of incubation at 37°C, absorbance at 450 nm was detected using a microplate reader (EnVision, PerkinElmer).
(§4) Using the measurement data, non-linear regression analysis based on a 2-parameter logistic model was performed with Spotfire (PerkinElmer) to estimate IC50 values.

Test [1] deals with HEK293/API2-MALT1/NF-κB reporter cells. In words: Inhibition of reporter activity in HEK293/API2-MALT1/NF-κB reporter cells. The format is cell-based. The following applies: Homo sapiens, 24 hours with test substance, One-glo luminescence. The method, then:
The API2-MALT1 fusion protein, expressed in MALT lymphoma, is known to constitutively activate the NF-κB pathway. To evaluate the inhibitory effect of the test substance on the NF-κB pathway in cells, a reporter activity inhibition test was conducted using HEK293/API2-MALT1/NF-κB reporter cells.
The test substance was prepared at a concentration of 10 mM in dimethyl sulfoxide (DMSO) and further diluted with DMSO to each of concentrations of 1000, 300, 100, and 10 µM. The solutions were further diluted 100-fold with DMEM medium containing 10% FBS to prepare test substance solutions.
HEK293/API2-MALT1/NF-κB reporter cells and 293T/CMV reporter cells (used as a negative control) were cultured in DMEM medium containing 10% FBS. Into a 384-well plate (#781080, Greiner), 6,000 cells were seeded in 30 µL per well, and after culturing for 24 hours, 3.3 µL of the adjusted test substance solution was added thereto (final concentrations: 10,000, 1,000, 100, and 10 nM). After culturing for 24 hours at 37°C in a 5% CO2 incubator, 33 µL of One-glo (Promega) was added to each well. After a 5-minute incubation at room temperature, luminescence was detected using a microplate reader (EnVision, PerkinElmer).
Using the measurement data, non-linear regression analysis was performed with the SAS system (SAS Institute Inc.) to estimate IC50.

Test [2] addresses T1, C-terminal catalytic domain of MALT1 (amino acid residues 329-824) (Homo sapiens, UniProt Q9UDY8).
T1 construct: C-terminal catalytic domain of MALT1 (amino acid residues 329-824)
T1 sequence (Q9UDY8 329-824): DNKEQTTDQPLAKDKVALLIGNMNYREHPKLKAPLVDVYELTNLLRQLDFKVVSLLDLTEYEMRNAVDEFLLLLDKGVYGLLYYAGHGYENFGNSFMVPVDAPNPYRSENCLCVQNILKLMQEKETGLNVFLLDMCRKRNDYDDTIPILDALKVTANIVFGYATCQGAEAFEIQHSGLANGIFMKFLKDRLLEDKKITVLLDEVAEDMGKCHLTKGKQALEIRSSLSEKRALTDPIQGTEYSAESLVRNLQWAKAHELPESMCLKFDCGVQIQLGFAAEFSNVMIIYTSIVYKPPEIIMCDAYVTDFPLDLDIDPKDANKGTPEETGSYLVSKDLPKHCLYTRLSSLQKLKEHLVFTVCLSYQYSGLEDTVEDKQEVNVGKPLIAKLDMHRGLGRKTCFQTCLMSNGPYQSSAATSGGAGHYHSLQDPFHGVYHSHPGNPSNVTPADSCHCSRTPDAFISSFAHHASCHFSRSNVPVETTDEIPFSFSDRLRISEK
In words: MALT1 protease inhibitory activity (enzyme activity inhibition assay, fluorogenic substrate). Type of test: biochemical. The following applies: substrate Ac-Leu-Arg-Ser-Arg-AMC 50 µM; 30°C for 2 hours; fluorescence. How it is done: To evaluate the enzyme inhibitory activity of a test substance against MALT1, an enzyme activity inhibition assay was conducted using the C-terminal catalytic domain of MALT1 (amino acid residues 329-824).
A test substance was prepared at a concentration of 10 mM in dimethyl sulfoxide (DMSO) and further diluted with DMSO to obtain final concentrations of 1000, 100, 10, 1, and 0.1 µM. The solutions were further diluted 25-fold with an assay buffer to prepare final test substance solutions. The composition of the assay buffer was 200 mM Tris/HCl HEPES (pH 7.5), 0.8 M Na citrate, 100 µM DTT, and 0.05% CHAPS.
The test substance solution was added to a 384-well black plate (#6007270, PerkinElmer) in an amount of 5 µL per well (n = 2; final concentrations of 10000, 1000, 100, 10, 1, and 0.1 nM), followed by the addition of 10 µL of MALT1 enzyme and finally 5 µL of a substrate solution (Ac-Leu-Arg-Ser-Arg-AMC, Peptide Institute, Inc.; final concentration in the reaction mixture: 50 µM), and after stirring, the mixture was allowed to react at 30°C for 2 hours. Fluorescence (excitation: 380 nm, emission: 460 nm) was detected using a microplate reader (EnVision, PerkinElmer).
Using the measurement data, non-linear regression analysis based on a 2-parameter logistic model was performed with Spotfire (PerkinElmer) to calculate IC50.

In another test the test system is OCI-Ly3 cell lines. In words: Proliferation inhibition test, ABC-DLBCL cell line OCI-Ly3. Type of test: cell-based. The following applies: Homo sapiens; OCI-Ly3 (ABC-DLBCL, NF-κB pathway-dependent); 96 hours; Cell Counting Kit-8; read-out: Proliferation inhibitory activity against OCI-Ly3 IC50. The method, then: as §1, §2, §3, §4
In general terms: Tetrazolium dyes change colour on reduction, which living cells bring about.

Some results are limits rather than exact numbers.

Regarding `C[C@@H]1CC(C(=O)c2cn(C3CCOCC3)c3nc(-n4nccn4)c(Cl)cc23)C[C@@H](C)N1c1ncc(F)cc1I` (stereo partly drawn) [Example 20, [5-chloro-1-(oxan-4-yl)-6-(2H-1,2,3-triazol-2-yl)-1H-pyrrolo[2,3-b]pyridin-3-yl][(2R,6R)-1-(5-fluoro-3-iodopyridin-2-yl)-2,6-dimethylpiperidin-4-yl]methanone], the IC50 in the test with SU-DHL-4 cell lines worked out at 6.4 µM; in test [1], 0.24 µM; in test [2], 0.11 µM; with OCI-Ly3 cell lines it was 0.48 µM.

Consider `C[C@@H]1CC(C(=O)c2cn([C@H]3CCOC3)c3nc(-n4nccn4)c(Cl)cc23)C[C@@H](C)N1c1ncc(F)cc1I` (stereo partly drawn) [Example 21, {5-chloro-1-[(3S)-oxolan-3-yl]-6-(2H-1,2,3-triazol-2-yl)-1H-pyrrolo[2,3-b]pyridin-3-yl}[(2R,6R)-1-(5-fluoro-3-iodopyridin-2-yl)-2,6-dimethylpiperidin-4-yl]methanone], for which the IC50 in the test with SU-DHL-4 cell lines was found to be 9 µM; in test [1] it was 0.31 µM; in test [2], 0.044 µM; in the test with OCI-Ly3 cell lines it was 0.54 µM.

`C[C@@H]1CC(C(=O)c2cn([C@@H]3CCOC3)c3nc(-n4nccn4)c(Cl)cc23)C[C@@H](C)N1c1ncc(F)cc1I` (stereo partly drawn) [Example 22, {5-chloro-1-[(3R)-oxolan-3-yl]-6-(2H-1,2,3-triazol-2-yl)-1H-pyrrolo[2,3-b]pyridin-3-yl}[(2R,6R)-1-(5-fluoro-3-iodopyridin-2-yl)-2,6-dimethylpiperidin-4-yl]methanone]: the IC50 was found to be 8.9 µM in the test on SU-DHL-4 cell lines, 0.28 µM in test [1], 0.07 µM in test [2] and 0.53 µM in the test with OCI-Ly3 cell lines.

On to `O=C(c1cnn(-c2cccc3c(F)cccc23)c1C(F)(F)F)c1c[nH]c2nc(-n3nccn3)c(Cl)cc12` [Example 23, [5-chloro-6-(2H-1,2,3-triazol-2-yl)-1H-pyrrolo[2,3-b]pyridin-3-yl][1-(5-fluoronaphthalen-1-yl)-5-(trifluoromethyl)-1H-pyrazol-4-yl]methanone], for which the IC50 with SU-DHL-4 cell lines stood at 9.5 µM; in test [1], 0.19 µM; in test [2] it was 0.019 µM; in the test with OCI-Ly3 cell lines it was 0.87 µM.

Consider `Cn1cc(C(=O)c2cnn(-c3ccnc4sccc34)c2C(F)(F)F)c2cc(Cl)c(-n3nccn3)nc21` [Example 24, [5-chloro-1-methyl-6-(2H-1,2,3-triazol-2-yl)-1H-pyrrolo[2,3-b]pyridin-3-yl][1-(thieno[2,3-b]pyridin-4-yl)-5-(trifluoromethyl)-1H-pyrazol-4-yl]methanone], for which the IC50 was 9.1 µM in the test on SU-DHL-4 cell lines, 0.13 µM in test [1], 0.012 µM in test [2] and 0.18 µM in the test on OCI-Ly3 cell lines.

For `O=C(c1cnn(-c2cncc3sccc23)c1C(F)(F)F)c1cn(C2COC2)c2nc(-n3nccn3)c(Cl)cc12` [Example 25, [5-chloro-1-(oxetan-3-yl)-6-(2H-1,2,3-triazol-2-yl)-1H-pyrrolo[2,3-b]pyridin-3-yl][1-(thieno[2,3-c]pyridin-4-yl)-5-(trifluoromethyl)-1H-pyrazol-4-yl]methanone], the IC50 in the test on SU-DHL-4 cell lines was 9 µM; in test [1], 0.18 µM; in test [2] it was 0.019 µM; in the test on OCI-Ly3 cell lines, 0.44 µM.

With `Cn1cc(C(=O)c2cnn(-c3cccn4nccc34)c2C(F)(F)F)c2cc(Cl)c(-n3nccn3)nc21` [Example 27, [5-chloro-1-methyl-6-(2H-1,2,3-triazol-2-yl)-1H-pyrrolo[2,3-b]pyridin-3-yl][1-(pyrazolo[1,5-a]pyridin-4-yl)-5-(trifluoromethyl)-1H-pyrazol-4-yl]methanone], the IC50 is 7.2 µM in the test with SU-DHL-4 cell lines, 0.28 µM in test [1], 0.0058 µM in test [2] and 0.38 µM with OCI-Ly3 cell lines.

As for `O=C(c1cnn(-c2cccc3c(=O)[nH]ccc23)c1C(F)(F)F)c1cn(C2CCC2)c2nc(-n3nccn3)c(Cl)cc12` [Example 30, 5-{4-[5-chloro-1-cyclobutyl-6-(2H-1,2,3-triazol-2-yl)-1H-pyrrolo[2,3-b]pyridine-3-carbonyl]-5-(trifluoromethyl)-1H-pyrazol-1-yl}isoquinolin-1(2H)-one], the IC50 is more than 10 µM in the test with SU-DHL-4 cell lines, 0.5 µM in test [1], 0.044 µM in test [2] and 0.87 µM in the test on OCI-Ly3 cell lines.

Take `Cn1cc(C(=O)c2cnn(-c3cccn4c(=O)cccc34)c2C(F)(F)F)c2cc(Cl)c(-n3nccn3)nc21` [Example 31, 9-{4-[5-chloro-1-methyl-6-(2H-1,2,3-triazol-2-yl)-1H-pyrrolo[2,3-b]pyridine-3-carbonyl]-5-(trifluoromethyl)-1H-pyrazol-1-yl}-4H-quinolizin-4-one]: the IC50 in the test on SU-DHL-4 cell lines was more than 10 µM; in test [1], 0.073 µM; in test [2], 0.025 µM; in the test on OCI-Ly3 cell lines, 0.15 µM.

As to `COc1nc2c(cc1Cl)c(C(=O)c1cnn(-c3cncc4c(F)cccc34)c1C(F)(F)F)cn2C` [Example 32, (5-chloro-6-methoxy-1-methyl-1H-pyrrolo[2,3-b]pyridin-3-yl)[1-(8-fluoroisoquinolin-4-yl)-5-(trifluoromethyl)-1H-pyrazol-4-yl]methanone], the IC50 with SU-DHL-4 cell lines is more than 10 µM; in test [1] it was 0.28 µM; in test [2], 0.054 µM; with OCI-Ly3 cell lines, 0.14 µM.

These data come from patent publication EP4772507A1, “AZAINDOLE COMPOUND AND MEDICAL DRUG” (Nippon Shinyaku Co., Ltd., priority 2023, dated 2025).
